In patent EP0253697A2, “Medicament and medicament compositions for the treatment of infective diseases due to viruses, as well as for the treatment of tumours” (INSTITUT NATIONAL DE LA SANTE ET DE LA RECHERCHE MEDICALE …, priority 1986, dated 1988):

Assays:
[1] = test system: cellules (infectées ou non); assay: Toxicity for the cells (infected or not) in the antiviral experiments; assay type: cell-based
[2] = test system: cellules de lymphome murin RBL5; assay: DNA synthesis (3H-thymidine incorporation) in tumour cells; assay type: cell-based
virus Visna = assay: Reverse transcriptase activity, infected sheep embryo fibroblasts; assay type: cell-based, mouton; conditions: GAH present at the time of infection, versus untreated cells; Figure 1B
mélanome B16 = assay: Survival of mice inoculated with B16 melanoma; assay type: in vivo, souris; conditions: 10^6 cells IP; 1200 mg/kg/day days 1-4, 600 mg/kg/day days 8-11, 300 mg/kg/day days 16-19; Figure 9
Description: (§1) Compte tenu des résultats in vitro, l'activité anti-tumorale de GAH a été étudiée sur deux modèles tumoraux murins : leucémie L1 210 et mélanome B16.
Pour le mélanome B16, maintenu par passage souscutanés successifs, la dose injectée par voie intra-péritonéale pour les essais thérapeutiques est de 10^6 cellules par souris.
(§2) Les résultats positifs qui ont été obtenus sont exprimés par le pourcentage d'augmentation de la survie, considérant comme significative une augmentation de 30%.
Courbe de survie des souris C5b16 inoculées avec les cellules de mélanome B16 (10^6 cellules dans 0,5 ml IP)après traitement avec GAH : 1200 mg/kg dose/jour, les jours 1, 2, 3, 4; 600 mg/kg dose/jour, les jours 8, 9, 10, 11; et 300 mg/kg dose/jour, les jours 16, 17, 18, 19 (les groupes traités et non traités sont de 6 animaux). - Abscisses : jours après l'inoculation de cellules tumorales - Ordonnées : pourcentage de souris vivantes

[3] = test system: colonies métas- tasiantes du mélanome B 16; assay: Cytolytic effect on cells isolated from metastases in vitro; assay type: cell-based
cellules normales MRC5 = assay: Growth, DNA synthesis and survival of normal MRC5 cells; assay type: cell-based, humain
Description: (§3) L'effet du GAH a été étudié sur diverses lignées cellulaires obtenues à partir de tumeurs humaines et fibroblastes de poumon foetal humain (MRC5).
(§4) La croissance des cellules MRC5 dans un milieu déprimé en glutamine est aussi arrêtée, avec, cependant, un décalage dans l'inhibition par rapport à l'effet du GAH. […] Il s'agit probablement de deux mécanismes d'action différents.
(§5) • - Abscisses : temps de culture des cellules MRC5 : 1. avec différentes conditions de culture • O témoin MRC5 milieu normal • milieu déprimé en glutamine • ? milieu normal avec D-glutamyl acide (GAH 2. après élimination des différentes drogues et addition • ? milieu normal MRC5 témoin • milieu avec glutamine 2mM • ? milieu normal • ? milieu GAH + glutamine 2mM • - Ordonnées : nombre de cellules vivantes.

[4] = as above; assay type: cell-based, humain; conditions: human; normal MRC5 cells, Figure 6; read-out: doses sans mort cellulaire
Description: as §3, §4, §5

leucémie L1 210 [5] = assay: DNA synthesis (3H-thymidine incorporation) in tumour cells; assay type: cell-based, murin; conditions: Figure 2
Description: as §3
- Abscisses : temps de contact des différentes cellules avec le le L-glutamique acide y monohydroxamate : 1-L1210 • 2 - BL60 • 3 - NterDau • 4-B16
(§6) - Ordonnées : incorporation de ^3H-thymidine (comptage de la radioactivité correspondante en coups par minute (CPM).

[6] = test system: carcinome du colon (lignée HT29); assay: as above; assay type: cell-based, humain
Description: as §3, §6

[7] = test system: carcinome de tumeur mammaire (lignée MCF7); assay: as above; assay type: cell-based, humain
Description: as §3, §6

[8] = test system: llgnée de tumeur d' Ewing; assay: as above; assay type: cell-based, humain
Description: as §3, §6

[9] = test system: cellules de tumeurs de Burkitt; assay: as above; assay type: cell-based, humain
Description: as §3, §6

mélanome = assay: as above; assay type: cell-based, humain
Description: as §3, §6

cellules de mélanome = assay: Survival of melanoma cells versus dose and contact time; assay type: cell-based
Procedure: Sur une lignée de mélanome prise comme exemple, on peut voir que l'effet inhibiteur est dépendant de la dose (Figure 3), mais également du temps de contact. Dès 2 heures de contact des cellules de mélanome avec 1,5 mM de GAH, il y a mort cellulaire, qui s'amplifie jusqu'à 72 heures de culture des cellules tumorales, puis les cellules échappent à cette inhibition (Figure 4). […] Ainsi, pour les cellules de mélanome, un contact de 30 heures avec 1,5 mM de GAH est nécessaire pour avoir une mort cellulaire complète à 72 heures, alors que 50 heures de contact sont nécessaires avec une concentration de drogue de 400 µM (Figure 5).
- Abscisses : temps de contact des cellules de mélanome avec différentes concentrations de GAH : • 400 µM; ○ 1 mM; . 1,5 mM - Ordonnées : pourcentage de survie des cellules de mélanome à 72 heures.

virus de la rougeole = assay: Inhibition of viral lysis plaque formation (PFU) in infected VERO cells; assay type: cell-based; conditions: in vitro, RNA virus
Description: (§7) Des cellules VERO (lignée de cellules "normales") ont été infectées par le virus de l'herpès simplex du type 1 (HSV.1) ou par le virus de la rougeole à une multiplicité d'infection d'une particule infectieuse par cellule. Les cellules infectées ont été traitées par GAH aux doses indiquées sur la Figure 1. L'inhibition observée, emprimée en logarithme d'inhibition de la formation de plages de lyse cellulaire par le virus (PFU-"Plage Forming Unit") par ml de milieu, semble apparaître brusquement après avoir dépassé une concentration "seuil" située autour de 600 lim. par litre de milieu cellulaire. Le fait que la concentration optimale soit la même pour les deux virus testés, qui, comme indiqué ci-dessus, sont très différents, est en faveur d'une action de la substance au niveau cellulaire, action capable d'éveiller un état de résistance envers les virus infectants.

[10] = test system: virus de l'herpès simplex du type 1 (HSV.1); assay: as above; assay type: cell-based; conditions: in vitro, DNA virus
Description: as §7

[11] = test system: virus du sarcome de Rous (RSV, souche B77); assay: Reverse transcriptase activity in culture medium and focus formation, infected chicken fibroblasts; assay type: cell-based, poulet
Description: Il a été également montré que le GAH provoque aussi une importante inhibition de la multiplication des virus appartenant à la famille des rétrovirus (virus à ARN possédant une activité dite de transcriptase inverse, c'est-à-dire une ADN polymé- rase-ARN dépendante). Ceci a été démontré avec le virus du sarcome de Rous (RSV, virus oncogène, sous-famille oncovirinae) et avec le virus visna (virus lytique, sous-famille lentivirinae à laquelle appartient aussi le H.I.V.). • 1 - Des fibroblastes de poulet, en passage secondaire, sont ensemencés et traités, ou non, par le GAH à diverses concentrations. Ensuite, les cellules sont infectées par le RSV (souche B77). Le milieu de culture des cellules infectées est recueilli à différents temps post- infection et l'activité transcriptase inverse a été mesurée, cette mesure étant considérée généralement comme un reflet de la libération des particules virales dans les milieux de culture. […] Il est intéressant de signaler que, comme dans le cas des hespesvirus, l'activité antivirable apparaît à la même dose de GAH capable de provoquer l'arrêt de la prolifération cellulaire, ce qui est en accord avec la notion d'une action du GAH agissant en premier lieu au niveau cellulaire.

leucémie L1 210 [12] = assay: Survival of mice inoculated with L1 210 leukaemia; assay type: in vivo, souris DBA/2; conditions: 5x10^5 cells IP; 1200 mg/kg/day days 1-4, 600 mg/kg/day days 8-10; Figure 8
Description: as §1
Pour la leucémie L1 210, maintenue par passage intra-péritonéal chez la souris DBA/2, le nombre de cellules utilisées pour les essais thérapeutiques est de 5.10^5 cellules par souris.
as §2
Courbe de survie des souris DBA/2-B6D2F1 inoculées avec L1 210 (5x10^5 cellules dans 0,5 ml IP) après traitement avec L-glutamique acide monohydroxamate : 1200 mg/kg dose/jour, les jours 1, 2, 3, 4; et 600 mg/kg dose/jour, les jours 8, 9, 10 (les groupes sont constitués de 8 souris.). - Abscisses : jours après l'inoculation de cellules tumorales - Ordonnées : pourcentage de souris vivantes.

N[C@@H](CCC(=O)NO)C(=O)O [GAH, L-glutamique acide y monohydroxamate]
toxicité pour les cellules [1]: faible taux, voire l'absence, de toxicité | effet sur la synthèse de l'ADN [2]: effet inhibiteur total | activité transcriptase inverse (virus Visna): diminution considérable | activité antitumorale (augmentation de la survie) (mélanome B16): activité antitumorale | effet sur des cellules isolées de métastases [3]: effet cytolytique | synthèse de l'ADN des cellules normales MRC5 (cellules normales MRC5): arrêt de synthèse de l'ADN | réversion de la croissance par addition de glutamine (cellules normales MRC5; GAH-treated MRC5 cells, glutamine 2mM added (Figure 7)): ne reverse pas | effet sur les cellules normales (cellules normales MRC5; reversible after removal of the drug): effet cytostatique | MNTC [4]: ≤ 800 µM | effet sur la synthèse de l'ADN (leucémie L1 210 [5]): effet inhibiteur total | effet sur la synthèse de l'ADN [6]: effet inhibiteur total | effet sur la synthèse de l'ADN [7]: effet inhibiteur total | effet sur la synthèse de l'ADN [8]: effet inhibiteur total | effet sur la synthèse de l'ADN [9]: effet inhibiteur total | effet sur la synthèse de l'ADN (mélanome): effet inhibiteur total | temps de contact nécessaire pour une mort cellulaire complète à 72 heures (cellules de mélanome; 400 µM GAH (Figure 5)): 50 heures | temps de contact nécessaire pour une mort cellulaire complète à 72 heures (cellules de mélanome; 1,5 mM GAH (Figure 5)): 30 heures | temps de contact à partir duquel il y a mort cellulaire (cellules de mélanome; 1,5 mM GAH, death from this contact time on, increasing up to 72 h of culture (Figure 4)): 2 heures | inhibition du virus (virus de la rougeole): inhibition très significative | inhibition du virus [10]: inhibition très significative | activité transcriptase inverse dans le milieu de culture ([11]; GAH 1mM present at the time of infection, chicken fibroblasts, Figure 1A): indétectable | formation de foyers de cellules transformées par le RSV ([11]; GAH-treated cultures, untreated controls show foci after three days): aucune formation de foyers | activité antitumorale (augmentation de la survie) (leucémie L1 210 [12]): activité antitumorale
